Values joined by “and” are separate entries in the source; they are usually repeats but may differ in a detail not shown here. Equal values may be shown once. Read-outs that look alike come from different tables or passages of the source.
Experiments:
MRGPRX4 + RAMP1 = target: T1, MRGPRX4 + RAMP1 (Homo sapiens, UniProt Q96LA9); assay: IP1 accumulation, MRGPRX4 coexpressed with RAMP1; type: cell-based; settings: log [nateglinide] (M) -7.49485; MRGPRX4+RAMP1 1pg 1:1; Supplementary Figure 5d, 5g
T1 construct: expressed in transfected cells; host or cells: HEK293T
Description: (§1) HEK293T cells were transfected with 1 pg/cell of MRGPRX4 DNA, and the amount of DNA was kept constant at 2 pg/cell with pcDNA3.1(+) empty vector, unless otherwise specified. Twenty four hours after transfection, IP1 assay was performed as previously described ([51]). When applicable, cells were treated with 1 μM YM254890 (YM) or different concentrations of U73122 for 1 h prior to addition of agonist or buffer. After incubation for 2 h, HTRF reagents and IP1 calibration standards were added and incubated for 2 h in the dark at room temperature. Time-resolved fluorescence signals were read on the BioTek Synergy NEO-TRF Hybrid multi-mode reader (BioTek Instruments). All data were carried out in three independent experiments with three technical replicate each.
For a homogenous transfection of MRGPRX4, a master mix of MRGPRX4 DNA was made prior to addition of the RAMP DNA. […]
(§2) Data reduction, standard calibration, and transformation of HTRF data were performed as previously described ([51]). Normalized IP1 values were calculated relative to the unstimulated mock-transfected cells (set to 0%) and fully stimulated MRGPRX4 (alone if applicable) (set to 100%).

MRGPRX4 + RAMP3 = target: T2, MRGPRX4 + RAMP3 (Homo sapiens, UniProt Q96LA9); assay: IP1 accumulation, MRGPRX4 coexpressed with RAMP3; type: cell-based; parameters: key to IP1 Basal / response to agonist, X4:ramp3.I:0.25 / response to agonist, X4:ramp3.I:0.5 / response to agonist, X4:ramp3.I:1: % IP1; unstimulated mock = 0%, fully stimulated MRGPRX4 = 100%; settings: for activation at 100 µM / activation at 20 µM / activation at 4 µM / activation at 0.8 µM / activation at […] / activation at 0.032 µM: 2 h; for EC50: Figure 4a top, individual replicates, read-out: potency (converted)
T2 construct: expressed in transfected cells; host or cells: HEK293T
Description: as §1
For RAMP DNA titration assay, HEK293T cells were cotransfected with a constant amount of 1 pg/cell of FLAG-MRGPRX4-GFP10-1D4 to which a serial dilution of 1, 0.75, 0.5, 0.25, or 0 pg/cell of each HA-RAMP-OLLAS was added. For a homogenous transfection of MRGPRX4, a master mix of MRGPRX4 DNA was made prior to addition of the RAMP DNA. […]
as §2

T1 sequence (Q96LA9 whole entry): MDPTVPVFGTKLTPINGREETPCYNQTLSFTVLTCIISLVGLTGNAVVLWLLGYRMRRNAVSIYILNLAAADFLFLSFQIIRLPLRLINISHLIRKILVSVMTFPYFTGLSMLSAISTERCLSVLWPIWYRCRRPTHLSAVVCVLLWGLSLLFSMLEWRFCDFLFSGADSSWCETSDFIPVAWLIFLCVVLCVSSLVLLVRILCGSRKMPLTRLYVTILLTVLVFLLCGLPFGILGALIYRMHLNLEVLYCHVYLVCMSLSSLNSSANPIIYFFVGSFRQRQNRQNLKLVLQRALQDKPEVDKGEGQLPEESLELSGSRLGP
T2 sequence (Q96LA9 whole entry): as above

With `CC(C)[C@H]1CC[C@H](C(=O)N[C@H](Cc2ccccc2)C(=O)O)CC1` [Nateglinide] the “IP1 accumulation (normalized)” value (MRGPRX4 + RAMP1) was 9.7787 and 6.02 and 5.114, the activation at 100 µM (MRGPRX4 + RAMP3; log [nateglinide] (M) -4, MRGPRX4+RAMP3 0.75pg 1:0.75, Supplementary Figure 5f, read-out: IP1 accumulation (normalized)) was 80.5% and the activation at 20 µM (MRGPRX4 + RAMP3; log [nateglinide] (M) -4.69897, MRGPRX4+RAMP3 0.75pg 1:0.75, Supplementary Figure 5f, read-out: IP1 accumulation (normalized)) was 75.4%. It also gave an activation at 4 µM (MRGPRX4 + RAMP3; log [nateglinide] (M) -5.39794, MRGPRX4+RAMP3 0.5pg 1:0.5, Supplementary Figure 5f, read-out: IP1 accumulation (normalized)) of 44.2%, an activation at 4 µM (MRGPRX4 + RAMP3; log [nateglinide] (M) -5.39794, MRGPRX4+RAMP3 0.75pg 1:0.75, Supplementary Figure 5f, read-out: IP1 accumulation (normalized)) of 36.8% and an activation at 0.8 µM (MRGPRX4 + RAMP3; log [nateglinide] (M) -6.09691, MRGPRX4+RAMP3 0.5pg 1:0.5, Supplementary Figure 5f, read-out: IP1 accumulation (normalized)) of 21.5%. The activation at 0.8 µM (MRGPRX4 + RAMP3; log [nateglinide] (M) -6.09691, MRGPRX4+RAMP3 0.75pg 1:0.75, Supplementary Figure 5f, read-out: IP1 accumulation (normalized)) was 14.8%, the activation at 0.8 µM (MRGPRX4 + RAMP3; log [nateglinide] (M) -6.09691, MRGPRX4+RAMP3 1pg 1:1, Supplementary Figure 5f, 5g, read-out: IP1 accumulation (normalized)) was 20.8% and the activation at […] (MRGPRX4 + RAMP3; log [nateglinide] (M) -6.79588, MRGPRX4+RAMP3 0.5pg 1:0.5, Supplementary Figure 5f, read-out: IP1 accumulation (normalized)) was 13.1%. The activation at […] (MRGPRX4 + RAMP3; log [nateglinide] (M) -6.79588, MRGPRX4+RAMP3 0.75pg 1:0.75, Supplementary Figure 5f, read-out: IP1 accumulation (normalized)) was 12%, the activation at 0.032 µM (MRGPRX4 + RAMP3; log [nateglinide] (M) -7.49485, MRGPRX4+RAMP3 0.5pg 1:0.5, Supplementary Figure 5f, read-out: IP1 accumulation (normalized)) was 12.9% and the activation at 0.032 µM (MRGPRX4 + RAMP3; log [nateglinide] (M) -7.49485, MRGPRX4+RAMP3 0.75pg 1:0.75, Supplementary Figure 5f, read-out: IP1 accumulation (normalized)) was 9.2%. For the same molecule, the activation at 0.032 µM (MRGPRX4 + RAMP3; log [nateglinide] (M) -7.49485, MRGPRX4+RAMP3 1pg 1:1, Supplementary Figure 5f, 5g, read-out: IP1 accumulation (normalized)) was 13.1%, the activation at 100 µM (MRGPRX4 + RAMP3; ratio MRGPRX4:RAMP3 1:0.25, log [Nateglinide] (M) -4, Fig S3c, read-out: IP1 accumulation) was 75.8% and the activation at 20 µM (MRGPRX4 + RAMP3; ratio MRGPRX4:RAMP3 1:0.25, log [Nateglinide] (M) -4.69897, Fig S3c, read-out: IP1 accumulation) was 68.5%. It also gave an activation at 4 µM (MRGPRX4 + RAMP3; ratio MRGPRX4:RAMP3 1:0.25, log [Nateglinide] (M) -5.39794, Fig S3c, read-out: IP1 accumulation) of 41%, an activation at 0.8 µM (MRGPRX4 + RAMP3; ratio MRGPRX4:RAMP3 1:0.25, log [Nateglinide] (M) -6.09691, Fig S3c, read-out: IP1 accumulation) of 25.1% and an activation at […] (MRGPRX4 + RAMP3; ratio MRGPRX4:RAMP3 1:0.25, log [Nateglinide] (M) -6.79588, Fig S3c, read-out: IP1 accumulation) of 23.1%. The activation at 0.032 µM (MRGPRX4 + RAMP3; ratio MRGPRX4:RAMP3 1:0.25, log [Nateglinide] (M) -7.49485, Fig S3c, read-out: IP1 accumulation) was 21%, the activation at 100 µM (MRGPRX4 + RAMP3; ratio MRGPRX4:RAMP3 1:0.5, log [Nateglinide] (M) -4, Fig S3c, read-out: IP1 accumulation) was 91% and the activation at 20 µM (MRGPRX4 + RAMP3; ratio MRGPRX4:RAMP3 1:0.5, log [Nateglinide] (M) -4.69897, Fig S3c, read-out: IP1 accumulation) was 74.7%. The activation at 4 µM (MRGPRX4 + RAMP3; ratio MRGPRX4:RAMP3 1:0.5, log [Nateglinide] (M) -5.39794, Fig S3c, read-out: IP1 accumulation) was 39.2%, the activation at 0.8 µM (MRGPRX4 + RAMP3; ratio MRGPRX4:RAMP3 1:0.5, log [Nateglinide] (M) -6.09691, Fig S3c, read-out: IP1 accumulation) was 21.5% and the activation at […] (MRGPRX4 + RAMP3; ratio MRGPRX4:RAMP3 1:0.5, log [Nateglinide] (M) -6.79588, Fig S3c, read-out: IP1 accumulation) was 16.2%. For the same molecule, the activation at 0.032 µM (MRGPRX4 + RAMP3; ratio MRGPRX4:RAMP3 1:0.5, log [Nateglinide] (M) -7.49485, Fig S3c, read-out: IP1 accumulation) was 16.8%, the activation at 100 µM (MRGPRX4 + RAMP3; ratio MRGPRX4:RAMP3 1:1, log [Nateglinide] (M) -4, Fig S3c, read-out: IP1 accumulation) was 86.2% and the activation at 20 µM (MRGPRX4 + RAMP3; ratio MRGPRX4:RAMP3 1:1, log [Nateglinide] (M) -4.69897, Fig S3c, read-out: IP1 accumulation) was 67.6%. For the same molecule, the activation at 4 µM (MRGPRX4 + RAMP3; ratio MRGPRX4:RAMP3 1:1, log [Nateglinide] (M) -5.39794, Fig S3c, read-out: IP1 accumulation) was 32.5%, the activation at 0.8 µM (MRGPRX4 + RAMP3; ratio MRGPRX4:RAMP3 1:1, log [Nateglinide] (M) -6.09691, Fig S3c, read-out: IP1 accumulation) was 18.7% and the activation at […] (MRGPRX4 + RAMP3; ratio MRGPRX4:RAMP3 1:1, log [Nateglinide] (M) -6.79588, Fig S3c, read-out: IP1 accumulation) was 15.5%. For the same molecule, the activation at 0.032 µM (MRGPRX4 + RAMP3; ratio MRGPRX4:RAMP3 1:1, log [Nateglinide] (M) -7.49485, Fig S3c, read-out: IP1 accumulation) was 13.9%, the activation at 100 µM (MRGPRX4 + RAMP3; ratio MRGPRX4:RAMP3 1:2, log [Nateglinide] (M) -4, Fig S3c, read-out: IP1 accumulation) was 83.7% and the activation at 4 µM (MRGPRX4 + RAMP3; ratio MRGPRX4:RAMP3 1:2, log [Nateglinide] (M) -5.39794, Fig S3c, read-out: IP1 accumulation) was 28.1%. For the same molecule, the activation at 0.8 µM (MRGPRX4 + RAMP3; ratio MRGPRX4:RAMP3 1:2, log [Nateglinide] (M) -6.09691, Fig S3c, read-out: IP1 accumulation) was 16.1%, the activation at […] (MRGPRX4 + RAMP3; ratio MRGPRX4:RAMP3 1:2, log [Nateglinide] (M) -6.79588, Fig S3c, read-out: IP1 accumulation) was 14.2% and the activation at 0.032 µM (MRGPRX4 + RAMP3; ratio MRGPRX4:RAMP3 1:2, log [Nateglinide] (M) -7.49485, Fig S3c, read-out: IP1 accumulation) was 12.5%. For the same molecule, the Emax (MRGPRX4 + RAMP3; Figure 4a bottom, DNA ratio MRGPRX4:RAMP3 1:0.5, MRGPRX4 alone = 100, read-out: efficacy) was 86.9%, the EC50 (MRGPRX4 + RAMP3; DNA ratio MRGPRX4:RAMP3 1:0.25) was 11.8 µM and 9.51 µM and 7.13 µM and the EC50 (MRGPRX4 + RAMP3; DNA ratio MRGPRX4:RAMP3 1:0.5) was 11.4 µM and 8.91 µM and 11.9 µM. The EC50 (MRGPRX4 + RAMP3; DNA ratio MRGPRX4:RAMP3 1:0.75) was 11.6 µM and 10 µM and 5.04 µM, the EC50 (MRGPRX4 + RAMP3; DNA ratio MRGPRX4:RAMP3 1:1) was 11 µM and 13.4 µM and 7.31 µM and the “response to agonist, X4:ramp3.I:0.25” value (MRGPRX4 + RAMP3; Figure 4c-f, agonist 100µM, X4:ramp3 1:0.25, MRGPRX4 = 100) was 78.1524 and 81.0936.

Source: paper PMC10165273, “Itch receptor MRGPRX4 interacts with the receptor activity–modifying proteins” (The Journal of Biological Chemistry, 2023)
